The text below walks through data of US7304174B2, “CaSR antagonist” (Japan Tobacco Inc., priority 2003, dated 2007).

In this experiment the target is T1, human calcium receptor (Homo sapiens, UniProt P41180).
T1 construct: expressed in transfected cells; host or cells: cell strain derived from rat adrenal, co-transformed with luciferase cDNA
T1 sequence (P41180 20-1078): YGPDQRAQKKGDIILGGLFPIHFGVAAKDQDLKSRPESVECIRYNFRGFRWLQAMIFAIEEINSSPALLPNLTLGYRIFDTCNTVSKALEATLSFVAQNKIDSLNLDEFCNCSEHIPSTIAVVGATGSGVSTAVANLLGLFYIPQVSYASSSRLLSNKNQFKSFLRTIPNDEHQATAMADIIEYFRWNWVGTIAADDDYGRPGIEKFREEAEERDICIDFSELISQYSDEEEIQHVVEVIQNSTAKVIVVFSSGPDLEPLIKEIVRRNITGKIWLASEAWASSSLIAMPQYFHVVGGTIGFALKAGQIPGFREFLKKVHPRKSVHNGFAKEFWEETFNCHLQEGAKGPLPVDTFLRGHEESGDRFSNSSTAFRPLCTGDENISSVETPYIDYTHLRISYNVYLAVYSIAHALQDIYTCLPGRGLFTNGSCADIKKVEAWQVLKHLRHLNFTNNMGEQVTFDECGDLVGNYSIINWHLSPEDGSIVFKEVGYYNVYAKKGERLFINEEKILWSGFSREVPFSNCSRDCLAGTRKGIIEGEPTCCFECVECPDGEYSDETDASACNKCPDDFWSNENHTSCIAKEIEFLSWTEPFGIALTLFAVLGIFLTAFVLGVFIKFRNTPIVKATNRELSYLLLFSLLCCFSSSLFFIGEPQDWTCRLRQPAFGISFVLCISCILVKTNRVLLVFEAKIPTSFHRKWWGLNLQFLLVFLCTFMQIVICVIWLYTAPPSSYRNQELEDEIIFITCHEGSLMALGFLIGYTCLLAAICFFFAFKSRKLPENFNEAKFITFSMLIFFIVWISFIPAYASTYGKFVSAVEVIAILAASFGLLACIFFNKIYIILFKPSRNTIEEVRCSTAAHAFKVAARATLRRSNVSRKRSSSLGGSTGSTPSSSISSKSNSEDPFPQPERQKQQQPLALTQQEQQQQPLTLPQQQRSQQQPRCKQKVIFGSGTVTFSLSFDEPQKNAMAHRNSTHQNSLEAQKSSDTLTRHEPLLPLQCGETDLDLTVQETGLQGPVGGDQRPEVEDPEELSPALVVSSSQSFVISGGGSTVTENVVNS
Briefly: Evaluation of antagonistic action on calcium receptor using reporter gene (luciferase). The format is cell-based. The note with it: transformed rat adrenal derived cells, 5 mM calcium chloride, culture 4 hrs, luciferase activity; read-out: Reporter gene assay (IC50, concentration showing 50% inhibitory rate). The procedure, abridged:
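Rat adrenal-derived cells transfected with luciferase and human calcium receptor cDNA, in F12 with 0.5% dialyzed horse serum and 0.25% dialyzed fetal bovine serum. Luciferase luminescence gave % inhibition vs control and blank; IC50 at 50% inhibition.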
In general terms: Reporter assays use an easily measured gene product as a stand-in for the process of interest.
Regarding `Cc1ccc(CC(C)(C)NC[C@@H](O)CO[C@H](C)c2ccccc2-c2cc3c(c(C(=O)O)c2)OCC3)cc1F` [Example 1-78, 2,3-dihydro-5-[2-[1-[(2R)-3-[[1-(3-fluoro-4-methylphenyl)-2-methylpropan-2-yl]amino]-2-hydroxypropoxy]ethyl]phenyl]benzofuran-7-carboxylic acid], the IC50 came out at 0.02 µM. The figure for `Cc1ccc(CC(C)(C)NC[C@@H](O)CO[C@H](C)c2ccccc2-c2ccc(C(=O)O)c(Cc3ccccc3)c2)cc1F` [Example 1-79, 3-benzyl-2′-[1-[(2R)-3-[[1-(3-fluoro-4-methylphenyl)-2-methylpropan-2-yl]amino]-2-hydroxypropoxy]ethyl]biphenyl-4-carboxylic acid] is 0.004 µM; for `COc1cc(-c2ccccc2[C@@H](C)OC[C@H](O)CNC(C)(C)Cc2ccc(Cl)cc2F)ccc1C(=O)O` [Example 1-81, 2′-[1-[(2R)-3-[[1-(4-chloro-2-fluorophenyl)-2-methylpropan-2-yl]amino]-2-hydroxypropoxy]ethyl]-3-methoxybiphenyl-4-carboxylic acid] it is 0.026 µM; for `COc1cc(-c2ccccc2[C@@H](C)OC[C@H](O)CNC(C)(C)Cc2ccc(Cl)c(F)c2)ccc1C(=O)O` [Example 1-82, 2′-[1-[(2R)-3-[[1-(4-chloro-3-fluorophenyl)-2-methylpropan-2-yl]amino]-2-hydroxypropoxy]ethyl]-3-methoxybiphenyl-4-carboxylic acid] it is 0.027 µM. In the case of `Cc1cc(C(=O)O)ccc1-c1ccccc1[C@@H](C)OC[C@H](O)CNC(C)(C)Cc1ccc(Cl)c(F)c1` [Example 1-83, 2′-[1-[(2R)-3-[[1-(4-chloro-3-fluorophenyl)-2-methylpropan-2-yl]amino]-2-hydroxypropoxy]ethyl]-2-methylbiphenyl-4-carboxylic acid] it was 0.016 µM.

With `Cc1cc(C(=O)O)ccc1-c1ccccc1[C@@H](C)OC[C@H](O)CNC(C)(C)Cc1ccc(Cl)cc1F` [Example 1-84, 2′-[1-[(2R)-3-[[1-(4-chloro-2-fluorophenyl)-2-methylpropan-2-yl]amino]-2-hydroxypropoxy]ethyl]-2-methylbiphenyl-4-carboxylic acid], the IC50 was 0.022 µM. The figure for `Cc1ccc(-c2ccccc2[C@@H](C)OC[C@H](O)CNC(C)(C)Cc2ccc3ccccc3c2)cc1C(=O)O` [Example 1-85, 4-methyl-2′-[1-[(2R)-3-[[1-(naphthalen-2-yl)-2-methylpropan-2-yl]amino]-2-hydroxypropoxy]ethyl]biphenyl-3-carboxylic acid] is 0.004 µM; for `Cc1ccc(CC(C)(C)NC[C@@H](O)CO[C@H](C)c2ccccc2-c2ccc(C)c(C(=O)O)c2)cc1F` [Example 1-86, 2′-[1-[(2R)-3-[[1-(3-fluoro-4-methylphenyl)-2-methylpropan-2-yl]amino]-2-hydroxypropoxy]ethyl]-4-methylbiphenyl-3-carboxylic acid] it is 0.014 µM. `Cc1cc(-c2ccccc2[C@@H](C)OC[C@H](O)CNC(C)(C)Cc2cc(Cl)cc(Cl)c2)ccc1C(=O)O` [Example 1-87, 2′-[1-[(2R)-3-[[1-(3,5-dichlorophenyl)-2-methylpropan-2-yl]amino]-2-hydroxypropoxy]ethyl]-3-methylbiphenyl-4-carboxylic acid]: the IC50 came out at 0.014 µM.

As to `Cc1cc(-c2ccccc2[C@@H](C)OC[C@H](O)CNC(C)(C)Cc2ccc(Cl)c(F)c2)ccc1C(=O)O` [Example 1-88], the IC50 came out at 0.014 µM. The figure for `Cc1cc(-c2ccccc2[C@@H](C)OC[C@H](O)CNC(C)(C)Cc2cc(F)ccc2F)ccc1C(=O)O` [Example 1-89, 2′-[1-[(2R)-3-[[1-(2,5-difluorophenyl)-2-methylpropan-2-yl]amino]-2-hydroxypropoxy]ethyl]-3-methylbiphenyl-4-carboxylic acid] is 0.271 µM; for `Cc1cc(F)c(CC(C)(C)NC[C@@H](O)CO[C@H](C)c2ccccc2-c2ccc(C(=O)O)c(C)c2)cc1Cl` [Example 1-90, 2′-[1-[(2R)-3-[[1-(5-chloro-2-fluoro-4-methylphenyl)-2-methylpropan-2-yl]amino]-2-hydroxypropoxy]ethyl]-3-methylbiphenyl-4-carboxylic acid] it is 0.271 µM; for `Cc1cc(-c2ccccc2[C@@H](C)OC[C@H](O)CNC(C)(C)Cc2cccc(Cl)c2F)ccc1C(=O)O` [Example 1-91, 2′-[1-[(2R)-3-[[1-(3-chloro-2-fluorophenyl)-2-methylpropan-2-yl]amino]-2-hydroxypropoxy]ethyl]-3-methylbiphenyl-4-carboxylic acid] it is 0.028 µM. In the case of `Cc1cc(-c2ccccc2[C@@H](C)OC[C@H](O)CNC(C)(C)Cc2ccc(C(F)(F)F)c(F)c2)ccc1C(=O)O` [Example 1-92, 2′-[1-[(2R)-3-[[1-(3-fluoro-4-trifluoromethylphenyl)-2-methylpropan-2-yl]amino]-2-hydroxypropoxy]ethyl]-3-methylbiphenyl-4-carboxylic acid] it was 0.022 µM; in that of `Cc1cc(-c2ccccc2[C@@H](C)OC[C@H](O)CNC(C)(C)Cc2cc(F)cc(Cl)c2)ccc1C(=O)O` [Example 1-93], 0.027 µM.

Turning to `Cc1cc(-c2ccccc2[C@@H](C)OC[C@H](O)CNC(C)(C)Cc2cc(C(F)(F)F)cc(C(F)(F)F)c2)ccc1C(=O)O` [Example 1-94, 2′-[1-[(2R)-3-[[1-(3,5-ditrifluoromethylphenyl)-2-methylpropan-2-yl]amino]-2-hydroxypropoxy]ethyl]-3-methylbiphenyl-4-carboxylic acid], the IC50 came to 0.028 µM. The figure for `Cc1cc(-c2ccccc2[C@@H](C)OC[C@H](O)CNC(C)(C)Cc2ccc(Cl)c(C(F)(F)F)c2)ccc1C(=O)O` [Example 1-97, 2′-[1-[(2R)-3-[[1-(4-chloro-3-trifluoromethylphenyl)-2-methylpropan-2-yl]amino]-2-hydroxypropoxy]ethyl]-3-methylbiphenyl-4-carboxylic acid] is 0.106 µM; for `Cc1ccc(CC(C)(C)NC[C@@H](O)CO[C@H](C)c2ccccc2-c2ccc(C(=O)O)c(C(C)(C)C)c2)cc1F` [Example 1-98, 2′-[1-[(2R)-3-[[1-(3-fluoro-4-methylphenyl)-2-methylpropan-2-yl]amino]-2-hydroxypropoxy]ethyl]-3-t-butylbiphenyl-4-carboxylic acid] it is 0.013 µM; for `C[C@@H](OC[C@H](O)CNC(C)(C)Cc1ccc(Cl)cc1F)c1ccccc1-c1ccc(C(=O)O)c(C(C)(C)C)c1` [Example 1-99, 2′-[1-[(2R)-3-[[1-(4-chloro-2-fluorophenyl)-2-methylpropan-2-yl]amino]-2-hydroxypropoxy]ethyl]-3-t-butylbiphenyl-4-carboxylic acid] it is 0.023 µM. The figure for `C[C@@H](OC[C@H](O)CNC(C)(C)Cc1ccc(Cl)c(F)c1)c1ccccc1-c1ccc(C(=O)O)c(C(C)(C)C)c1` [Example 1-100, 2′-[1-[(2R)-3-[[1-(4-chloro-3-fluorophenyl)-2-methylpropan-2-yl]amino]-2-hydroxypropoxy]ethyl]-3-t-butylbiphenyl-4-carboxylic acid] is 0.017 µM. For `Cc1ccc(CC(C)(C)NC[C@@H](O)CO[C@H](C)c2ccccc2-c2ccc(C(=O)O)c(N3CCOCC3)c2)cc1F` [Example 1-102, 2′-[1-[(2R)-3-[[1-(3-fluoro-4-methylphenyl)-2-methylpropan-2-yl]amino]-2-hydroxypropoxy]ethyl]-3-morpholinobiphenyl-4-carboxylic acid], the IC50 turned out to be 0.014 µM.
